This note sets out measurements from patent publication US20080305066A1, “2-C-Substituted Propane-1,3-Dicarbonyl Compounds and Their Use in Neutralising Malodour” (GIVAUDAN SA, priority 2005, published 2008).

Data set [1] can be described thus: Neutralization of propyl mercaptane (headspace GC-MS). The conditions noted are these: 0.25 ml 4 mM test compound + 0.25 ml 4 mM propyl mercaptane in dimethylsulfoxide/H2O 1:1, room temperature, 3 h, vs blank samples. As to the method: A 23×75 mm-headspace vial is charged with 0.25 ml of a 4 mM-solution of the test compound in dimethylsulfoxide/H2O 1:1. One blank sample containing 0.25 ml of dimethylsulfoxide/H2O 1:1 is prepared per 3 test samples. The vials are sealed with a 20 mm-aluminium seal containing a rubber septum. At 15 min-intervals (which is the time of 1 GC-analysis run) 0.25 ml of a 4 mM-solution of propyl mercaptane in dimethylsulfoxide/H2O 1:1 is added to each sample via cannula.
The samples are left at room temperature for 3 h, then submitted to headspace analysis using a headspace auto sampler connected to a GC-MS apparatus. Per sample 250 μl of headspace is injected. The peak areas (MS-ion current) of propyl mercaptane is compared to the averaged value from the blank samples to calculate the reduction of headspace concentration.

A short description of data set [2]: Neutralization of human sweat in aqueous environment, two chamber sample (headspace GC-MS). To be noted: 5.0 μmol test compound on viscose filter, 16 h at 35° C., vs blank samples; for % Headspace reduction of malodours compounds: 3-mercapto-1-butanol: aqueous 3-mercapto-1-butanol (17 mM) with 3-methyl hexanoic acid (23 mM); for % Headspace reduction of malodours compounds: 3-methyl hexanoic acid: aqueous 3-methyl hexanoic acid (23 mM) with 3-mercapto-1-butanol (17 mM). How it is done:
A two chamber sample was prepared as depicted in FIG. 1. It is composed of the headspace vial (1′) described in example 26 as the outer containment and a standard HPLC-auto sampler vial (2′) as the inner containment. The test compound (5.0 μmol) is absorbed on viscose filter (3′) (applied as CH2Cl2-solution and let evaporate). An amount of 100 ul of an aqueous solution of 3-methyl hexanoic acid (23 mM) and 3-mercapto-1-butanol (17 mM), is placed on the bottom of the inner vial (2′). A screw cap containing the filter (3′) is screwed tightly on the HPLC-vial (2′), which is placed in the headspace vial (1′). The headspace vial is closed with an aluminium seal containing a rubber septum (5′). Blank samples containing an empty filter (3′) and the aqueous solution of 3-methyl hexanoic acid and 3-mercapto-1-butanol in the inner vial as described above are prepared (1 blank per 3 test samples). The samples are left standing for 16 h at 35° C., then submitted to headspace analysis as described in example 26.
The malodourant compounds (3-methyl hexanoic acid and 3-mercapto-1-butanol) diffuse through the filter into the outer volume (6′). Therefore a compound of formula 1 (neutralizing substance) applied on the filter (3′) will reduce the headspace concentration of the sweat malodourants in the outer volume compared to the blank samples.

Data set [3] in a line: Olfactory evaluation against sweat-malodour reconstitution (panel test). The conditions noted are these: 50 μl of 1% solution in ethanol on malodour treated cotton swatch; LMS rating, expert panel of 20 assessors; relative to swatch without test compound. As to the method: An ethanolic solution of axilla-malodour reconstitution is applied on a 1×1 cm cotton swatch (100 ∥l, 0.1% wt/wt), then 50 μl of the test compound (1% solution in ethanol) are dosed to the malodour treated swatches. The malodour intensity is rated on a LMS (labelled magnitude scale) by an expert panel of 20 assessors. The results are then expressed in % reduction relative to malodour of a swatch without adding a test compound.

SMILES strings stand for the structures.

Regarding `CCOC(=O)C(C)=C(C(=O)OCC)C(=O)OCC`, the “% Headspace Reduction” value in data set [1] came to 20%.
Turning to `CCOC(=O)/C=C(/C(C)=O)C(=O)OCC` [drawing 36], the “% Headspace Reduction” value in data set [1] came out at 100%.
`CCCC(=O)C(C(=O)OCC)C(OCC)C(=O)OCC` (stereo not shown): the “% Headspace Reduction” value in data set [1] is reported as 38%.
Turning to `CC(=O)C(=CC(C)CCC=C(C)C)C(C)=O` (stereo not shown), in data set [1], the “% Headspace Reduction” value came to 8%.
As for `CCCCCCCC=C(C(=O)OCC)C(=O)OCC` [drawing 55], in data set [2], the “% Headspace reduction of malodours compounds: 3-mercapto-1-butanol” value (shortened to “% Headspace reduction … 3-mercapto-1-butanol”) is 22% and the “% Headspace reduction of malodours compounds: 3-methyl hexanoic acid” value (from here on “% Headspace reduction … 3-methyl hexanoic acid”) came out at 0%.
As for `CCOC(=O)C(OC)C(C(C)=O)C(=O)OCC` (stereo not shown), in data set [1], the “% Headspace Reduction” value is recorded as 54%.
Same read-out and setting: as for `CCCC(=O)/C(=C/C(=O)OCC)C(=O)OCC`, the figure is 100%; as for `CCOC(=O)C(O)C(C(C)=O)C(=O)OCC` (stereo not shown), 62%.
As to `CCOC(=O)C(OCC)C(C(=O)OCC)C(=O)c1ccccc1` (stereo not shown), in data set [1], the “% Headspace Reduction” value was 10%.
Turning to `CCOC(=O)C(O)C(C(C)=O)C(=O)OC(C)(C)C` (stereo not shown), in data set [1], the “% Headspace Reduction” value is reported as 45%.
Same read-out and setting: the same measure for `CCOC(=O)C(OCC)C(C(C)=O)C(=O)OCC` (stereo not shown) [drawing 42]: 64%; for `CCOC(=O)C(OCC)C(C(C)=O)C(C)=O` (stereo not shown): 82%.
On the same count and under the same terms, as for `CCOC(=O)/C=C(\C(C)=O)C(=O)c1ccccc1`, the figure is 100%.
Still for that read-out and setting: as for `CCOC(=O)C=C(C(C)=O)C(C)=O` [drawing 38], the figure is 100%.
Turning to `CCCCCCC/C=C(/C(C)=O)C(=O)OCC` [drawing 63], in data set [3], the “% Reduction of axilla malodour intensity in panel test” value (shortened to “% Reduction”) is 82%.
For `CCOc1cc(C=C(C(C)=O)C(C)=O)ccc1O` [drawing 61], in data set [2], the “% Headspace reduction … 3-mercapto-1-butanol” value worked out at 41% and the “% Headspace reduction … 3-methyl hexanoic acid” value amounted to 9%.
With `CCOC(=O)/C=C(/C(C)=O)C(=O)OCC` [drawing 64], the “% Reduction” value in data set [3] came out at 76%.
Consider `CCOC(=O)C=C(C(C)=O)C(C)=O` [drawing 58], for which, in data set [2], the “% Headspace reduction … 3-mercapto-1-butanol” value was found to be 100% and the “% Headspace reduction … 3-methyl hexanoic acid” value is on record as 0%.
`CCOC(=O)/C=C(\C(=O)OC)C(=O)C(C)(C)C`: the “% Headspace Reduction” value in data set [1] is 82%.
For the compound `CCOC(=O)/C=C(/C(C)=O)C(=O)OCC` [drawing 57], in data set [2], the “% Headspace reduction … 3-mercapto-1-butanol” value came to 98% and the “% Headspace reduction … 3-methyl hexanoic acid” value is on record as 10%.
Regarding `CCOC(=O)C(O)C(C(=O)OC)C(=O)C(C)(C)C` (stereo not shown), in data set [1], the “% Headspace Reduction” value was 15%.
On the same count and under the same terms, as for `CCOC(=O)C(OCC)C(C(C)=O)C(=O)c1ccccc1` (stereo not shown), the figure is 22%; as for `CCOC(=O)C(O)C(C(=O)OCC)C(=O)c1ccccc1` (stereo not shown), 20%.
With `CCOC(=O)/C=C(\C(=O)OCC)C(=O)c1ccccc1` [drawing 50], in data set [1], the “% Headspace Reduction” value is reported as 100%.
In the case of `CCCCCCC/C=C(/C(C)=O)C(=O)OCC` [drawing 56], in data set [2], the “% Headspace reduction … 3-mercapto-1-butanol” value is reported as 35% and the “% Headspace reduction … 3-methyl hexanoic acid” value was 10%.
The like results for `CCOC(=O)C(OCC)C(C(C)=O)C(=O)OCC` (stereo not shown) [drawing 59] were, in that order, 100% and 0%.
As to `CCOc1cc(C=C(C(C)=O)C(C)=O)ccc1O` [Example 7], the melting point fell in the range of 126 to 128 °C.
`CCCCCCCC=C(C(=O)OCC)C(=O)OCC` [drawing 62]: the “% Reduction” value in data set [3] was determined as 59%.
`CC(=O)C(=CC(C)C)C(C)=O`: the “% Headspace Reduction” value in data set [1] is 34%.
For the compound `CCOC(=O)/C=C(\C(=O)OCC)C(=O)c1ccccc1` [drawing 60], in data set [2], the “% Headspace reduction … 3-mercapto-1-butanol” value stood at 85% and the “% Headspace reduction … 3-methyl hexanoic acid” value is 28%.
For the compound `CCOC(=O)C(OCC)C(C(C)=O)C(=O)OCC` (stereo not shown) [drawing 65], in data set [3], the “% Reduction” value is recorded as 67%.
For the compound `CCCC(=O)/C(C(=O)OCC)=C(\O)C(=O)OCC`, the “% Headspace Reduction” value in data set [1] was determined as 15%.
With `CCCCCCOC(=O)/C=C/C(=O)OCCCCCC` [DHF, Dihexylfumarate, reference compound], the “% Reduction” value in data set [3] is 68%. Besides, in data set [2], the “% Headspace reduction … 3-mercapto-1-butanol” value is 10% and the “% Headspace reduction … 3-methyl hexanoic acid” value is 0%. In data set [1], the “% Headspace Reduction” value is reported as 5%.

For orientation: melting point means the temperature, or range, at which the solid turns liquid.
